According to patent US12152038B2, “Vasopressin receptor antagonists and products and methods related thereto” (Neumora Therapeutics, Inc., priority 2017, dated 2024):

target: T1, human Arginine Vasopressin Receptor 1b (AVPR1b) (Homo sapiens, UniProt P47901); assay: Vasopressin V1b receptor antagonist assay (FLIPR calcium, CHO-AVPR1b cells); format: cell-based
T1 construct: expressed in transfected cells; host or cells: CHO (CHO-AVPR1b, kept under G418 selection)
T1 sequence (P47901 1-424): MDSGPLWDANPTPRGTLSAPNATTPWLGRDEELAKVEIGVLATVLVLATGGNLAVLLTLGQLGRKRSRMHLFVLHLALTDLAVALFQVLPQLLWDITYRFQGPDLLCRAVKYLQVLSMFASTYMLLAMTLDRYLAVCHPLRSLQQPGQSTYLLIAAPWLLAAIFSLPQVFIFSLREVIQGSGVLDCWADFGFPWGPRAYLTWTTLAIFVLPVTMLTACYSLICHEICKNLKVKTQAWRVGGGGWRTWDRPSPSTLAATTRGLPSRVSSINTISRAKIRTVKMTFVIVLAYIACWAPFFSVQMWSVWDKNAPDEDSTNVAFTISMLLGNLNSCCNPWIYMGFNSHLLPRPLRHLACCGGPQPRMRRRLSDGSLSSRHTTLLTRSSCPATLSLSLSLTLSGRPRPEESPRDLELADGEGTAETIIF
Procedure, shortened: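 CHO cells expressing human AVPR1b, loaded with Calcium-6 dye, were given compound (10-point, 1:3) for 15 min at 37 °C. Then AVP was added at its daily-determined EC80 in HBSS/HEPES. FLIPR fluorescence read for 3 min; antagonism seen as reduced AVP calcium response.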

IC50, ≥ 1000 nM:
Cc1cncc(N2CC3(CN(C(=O)N4c5ccc(Cl)cc5OCC4C)C3)C2)n1 (centres unmarked) [21-3]
O=C(N1CC2(C1)CN(c1ccc(F)cn1)C2)N1CCOc2cc(F)ccc21 [1-64]
O=C(N1CC2(C1)CN(c1cccnc1)C2)N1CCOc2cc(Cl)ccc21 [1-72]
CC1COc2cc(Cl)ccc2N1C(=O)N1CC2(C1)CN(c1ccc(F)cn1)C2 (single isomer, unassigned) [1-73-B]
COc1ccc2c(c1)OCC(C)N2C(=O)N1CC2(C1)CN(c1ccc(F)cn1)C2 (single isomer, unassigned) [1-59-B]
CC1COc2cc(Cl)ccc2N1C(=O)N1CC2(C1)CN(c1ncccc1F)C2 (single isomer, unassigned) [1-57-A]
N#Cc1cccc(N2CC3(CN(C(=O)N4CCOc5cc(Cl)ccc54)C3)C2)n1 [1-39]
Cc1cc(F)nc(N2CC3(CN(C(=O)N4CCOc5cc(Cl)ccc54)C3)C2)c1 [1-45]
CC1COc2cc(F)ccc2N1C(=O)N1CC2(C1)CN(c1ncccc1F)C2 (single isomer, unassigned) [1-67-A]
CC1COc2cc(Cl)ccc2N1C(=O)N1CC2(C1)CN(c1ncccc1C#N)C2 (centres unmarked) [21-2]
O=C(N1CC2(C1)CN(c1cc(F)ccn1)C2)N1CCOc2cc(Cl)ccc21 [1-70]
N#Cc1ccnc(N2CC3(CN(C(=O)N4CCOc5cc(Cl)ccc54)C3)C2)c1 [1-53]
CC1COc2cc(Cl)ccc2N1C(=O)N1CC2(C1)CN(c1ccncn1)C2 (centres unmarked) [21-6]
O=C(N1CC2(C1)CN(c1cc(F)cc(F)n1)C2)N1CCOc2cc(Cl)ccc21 [1-51]
CC1COc2cc(Cl)ccc2N1C(=O)N1CC2(C1)CN(c1noc3ccccc13)C2 (centres unmarked) [21-1, (6-(benzo[d]isoxazol-3-yl)-2,6-diazaspiro[3.3]heptan-2-yl)(7-chloro-3-methyl-2,3-dihydro-4H-benzo[b][1,4]oxazin-4-yl)methanone]
CC1COc2cc(Cl)ccc2N1C(=O)N1CC2(C1)CN(c1cnccn1)C2 (single isomer, unassigned) [1-58-B]
O=C(N1CC2(C1)CN(c1ccc(F)c(F)n1)C2)N1CCOc2cc(Cl)ccc21 [1-49]
CCc1cnc(N2CC3(CN(C(=O)N4c5ccc(Cl)cc5OCC4C)C3)C2)nc1 (centres unmarked) [21-9]
CC1COc2cc(Cl)ccc2N1C(=O)N1CC2(C1)CN(c1ccccn1)C2 (centres unmarked) [1-60]
Cc1cc(N2CC3(CN(C(=O)N4c5ccc(Cl)cc5OCC4C)C3)C2)ncn1 (centres unmarked) [21-11]
CCC1COc2cc(Cl)ccc2N1C(=O)N1CC2(C1)CN(c1ccc(F)cn1)C2 (single isomer, unassigned) [1-55-B]
CC1COc2cc(Cl)ccc2N1C(=O)N1CC2(C1)CN(c1ncncc1F)C2 (centres unmarked) [21-5]
COc1ccc(N2CC3(CN(C(=O)N4CCOc5cc(Cl)ccc54)C3)C2)nc1 [1-68]
Cc1nc(N2CC3(CN(C(=O)N4CCOc5cc(Cl)ccc54)C3)C2)ccc1F [1-30]
CC1COc2cc(F)ccc2N1C(=O)N1CC2(C1)CN(c1cnccn1)C2 (single isomer, unassigned) [1-65-B]
O=C(N1CC2(C1)CN(c1cnc(F)cn1)C2)N1CCOc2cc(Cl)ccc21 [1-18]
Cc1cncc(N2CC3(CN(C(=O)N4CCOc5cc(Cl)ccc54)C3)C2)n1 [1-22]
CC1COc2cc(Cl)ccc2N1C(=O)N1CC2(C1)CN(c1nn(C)c3ncccc13)C2 (single isomer, unassigned) [20-15-B]
Cc1cnnc(N2CC3(CN(C(=O)N4c5ccc(Cl)cc5OCC4C)C3)C2)c1 (centres unmarked) [21-4]
Cc1cccc(N2CC3(CN(C(=O)N4CCOc5cc(Cl)ccc54)C3)C2)n1 [1-3]
CC1COc2cc(Cl)ccc2N1C(=O)N1CC2(C1)CN(c1ccc(F)cn1)C2 (single isomer, unassigned) [1-73-A]
O=C(N1CC2(C1)CN(c1cccc(F)n1)C2)N1CCOc2cc(Cl)ccc21 [1-69]
O=C(N1CC2(C1)CN(c1ccc(F)cn1)C2)N1CCC(O)c2cc(Cl)ccc21 (single isomer, unassigned) [13-1-B]
Cc1nccc(N2CC3(CN(C(=O)N4c5ccc(Cl)cc5OCC4C)C3)C2)n1 (centres unmarked) [21-8]
COc1nccnc1N1CC2(CN(C(=O)N3CCOc4cc(Cl)ccc43)C2)C1 [1-43]
Cc1cnc(N2CC3(CN(C(=O)N4c5ccc(Cl)cc5OCC4C)C3)C2)nc1 (single isomer, unassigned) [20-13-B]
CC1COc2cc(F)ccc2N1C(=O)N1CC2(C1)CN(c1ccccn1)C2 (single isomer, unassigned) [1-66-B]
CC1COc2cc(Cl)ccc2N1C(=O)N1CC2(C1)CN(c1ccccn1)C2 (single isomer, unassigned) [1-60-B]
CC1COc2cc(Cl)ccc2N1C(=O)N1CC2(C1)CN(c1cc(=O)n(C)cn1)C2 (single isomer, unassigned) [20-14-B]
O=C(N1CC2(C1)CN(c1cccnn1)C2)N1CCOc2cc(Cl)ccc21 [1-71]
CC1COc2cc(Cl)ccc2N1C(=O)N1CC2(C1)CN(c1nccc(C(F)(F)F)n1)C2 (centres unmarked) [21-10]
Cc1cnc(N2CC3(CN(C(=O)N4CCOc5cc(Cl)ccc54)C3)C2)cn1 [1-20]
CC1COc2cc(Cl)ccc2N1C(=O)N1CC2(C1)CN(c1ncc(F)cn1)C2 (single isomer, unassigned) [18-2-B]
CC1COc2cc(F)ccc2N1C(=O)N1CC2(C1)CN(c1ncccc1F)C2 (centres unmarked) [1-67]
